# Assay results published in patent publication US20240049713A1, “METHOD FOR CONTROLLING HERBICIDE-RESISTANT WEEDS” (SUMITOMO CHEMICAL COMPANY, LIMITED, priority 2020, published 2024).
# Where two headings read alike, the source gives them in different places.
# Tests used:
# [1] = tested on: PPO inhibitor-resistant weeds; assay: plastic pot tests as Examples 1 to 72 and variants (Examples 73 to 3456)
# Experimental: On the same day, compound X is applied to the surface of soil so that the application rate of the compound X is 10, 20, 40 or 80 g/ha and the spray volume is 200 L/ha. The plastic pot is then placed in a greenhouse, and at 7 days after the application, soybeans are seeded, and further at 14 days after seeding the soybeans, the effect on the weeds and crop injuries on the soybeans are investigated.
# On the same day, compound X is applied to the surface of soil so that the application rate of the compound X is 10, 20, 40 or 80 g/ha and the spray volume is 200 L/ha. The soybeans are then cultivated in a greenhouse, and at 21 days after seeding, the effect on the weeds and crop injuries on the soybeans are investigated.
# The soybeans are then cultivated in a greenhouse, and at 21 days after seeding, compound X is foliar-treated so that the application rate of the compound X is 10, 20, 40 or 80 g/ha and the spray liquid amount is 200 L/ha. Further, the soybeans are cultivated in the greenhouse, and at 14 days after the application of compound X, the effect on the weeds and crop injuries on the soybeans are investigated.
# [2] = tested on: waterhemp (Amaranthus tuberculatus=Amaranthus rudis=Amaranthus tamariscinus) having Gly210 deficiency in PPO2; assay type: in vivo; conditions: rating 0 to 100, sprayed at plant height 20 cm, 200 L/ha, 1% (w/v) Agri-Dex, evaluated after 14 days in greenhouse
# [3] = applications as in Examples 1 to 72, compound X replaced, 10 to 80 g/ha
# [4] = as Examples 1 to 216, RoundupPowerMax 32 fluid ounce/acre and XtendiMax 1 pint/acre further added
SMILES,"effect on the weeds [1, 3]","effect on the weeds [1, 4]",herbicidal effect ([2]; 20 g/ha),herbicidal effect ([2]; 40 g/ha)
COC(=O)COC(=O)C1(Oc2cc(-n3c(=O)cc(C(F)(F)F)n(C)c3=O)c(F)cc2Cl)CC1 [Compound Y],effective control effect,effective control effect,–,–
Cn1c(C(F)(F)F)cc(=O)n(-c2cc(OC3(C(=O)OCC(=O)O)CC3)c(Cl)cc2F)c1=O [Compound Z],effective control effect,effective control effect,–,–
"COC(=O)CCNC(=O)C(C)Sc1cc(-n2c(=O)cc(C(F)(F)F)n(C)c2=O)c(F)cc1Cl (stereo not drawn) [Tiafenacil, tiafenacil, reference compound]",–,–,50,70
CCOC(=O)COC(=O)C1(Oc2cc(-n3c(=O)cc(C(F)(F)F)n(C)c3=O)c(F)cc2Cl)CC1 [Compound X],–,effective control effect,99,99
